The source of these data is US9969755B2, “Photodynamic therapy photosensitizers” (The Royal Institution for the Advancement of …, priority 2016, dated 2018).

Read-outs that look alike come from different tables or passages of the source.

Series [1] in a line: Absorption and steady-state fluorescence, fluorescence quantum yield in acetonitrile. Format: physicochemical. How it is done:
Absorption spectra were recorded using a Hitachi U-2800 UV-vis-NIR spectrophotometer. Luminescence spectra were recorded using a PTI QuantaMaster spectrofluorimeter using 10×10 mm quartz cuvettes and corrected for detector sensitivity.
The steady-state fluorescence spectra were recorded between 500-800 nm (depending on each compound) upon exciting at the wavelength of the absorbance maxima. The excitation and emission slits were tuned according to the fluorescence quantum yield of each BODIPY (i.e. for compound 7 excitation slits were 5 nm and for compound 4 we used 2 nm). Fluorescence was recorded every 1 nm using 0.1 s integration time. For the Fluorescence lifetime measurements, the excitation rate was 10 MHz, and the detection frequency was less than 100 kHz. Photons were collected at the magic angle. The fluorescence decay traces were fit using FluoFit (Picoquant) software. For steady-state and time-resolved fluorescence measurements a quartz cuvette with a 10 mm path length was used and all the solutions were prepared in air equilibrated acetonitrile.
Quantum yields of fluorescence were measured using PM605 in acetonitrile as a reference. Absorption and emission spectra of PM605 and the dye of interest were measured in acetonitrile at five different concentrations. The integrated intensity versus absorbance were then plotted and fitted linearly. Relative quantum yields of fluorescence for the unknown with respect to the standard were obtained from equation 1, where φ, Δ, and n refer, respectively, to the quantum yield, the slope obtained from the above-mentioned plot, and the solvent refractive index for the unknown (x) or standard (st).

Series [2] in a line: Time-resolved fluorescence (fluorescence lifetime, TCSPC). Format: physicochemical. The following applies: acetonitrile, room temperature. How it is done:
Fluorescence lifetime measurements were carried out using a Picoquant Fluotime 200 time correlated single photon counting (TCSPC) setup employing an LDH-P-C-470 picosecond diode laser (Picoquant) with an excitation wavelength at 466 nm as the excitation source. The laser was controlled by a PDL 800 B picosecond laser driver from Picoquant. ^1HNMR spectra were recorded on a Bruker AV 400 instrument at 400 MHz. ^13CNMR spectra were recorder on a Varian VNMRS 500 instrument at 125 MHz. ESI mass spectra were measured on a Bruker maXis impact. Laser Flash Photolysis (LFP) experiments were carried out in a commercially available Luzchem 212 LFP setup provided with a Tektronix TDS 2000 digitizer for signal capture. A Nd:Yag laser (Continuum model Surelite I-10 using a second harmonic generators, model number SL-SHG-T1) was used for excitation at a wavelength of 532 nm. Phosphorescence experiments were recorded using a Cary Eclipse Fluorescence Spectrophotometer. Singlet Oxygen phosphorescence was recorded with a Hamamatsu NIR detector (peltier cooled at −62.8° C. operating at 800 V, coupled to a grating monochromator) upon excitation with a 532 nm Nd:YAG laser. A customized Luzchem Research LFP-111 system was employed to collect and process the data. The steady-state fluorescence spectra were recorded between 500-800 nm (depending on each compound) upon exciting at the wavelength of the absorbance maxima. The excitation and emission slits were tuned according to the fluorescence quantum yield of each BODIPY (i.e. for compound 7 excitation slits were 5 nm and for compound 4 we used 2 nm). Fluorescence was recorded every 1 nm using 0.1 s integration time. For the Fluorescence lifetime measurements, the excitation rate was 10 MHz, and the detection frequency was less than 100 kHz. Photons were collected at the magic angle. The fluorescence decay traces were fit using FluoFit (Picoquant) software. For steady-state and time-resolved fluorescence measurements a quartz cuvette with a 10 mm path length was used and all the solutions were prepared in air equilibrated acetonitrile.

The nature of series [3]: Laser flash photolysis: triplet excited state decay and quenching. Format: physicochemical. How it is done: The 500 mJ/pulse laser output was attenuated yielding 10 mJ laser pulses of 6 ns in duration. Samples were prepared in acetonitrile. The final absorbance of the BODIPY dyes was 0.1. The concentration was kept low to avoid triplet-triplet annihilation. Each sample was de-oxygenated by purging with argon gas for at least 30 min. Quartz cells containing 10×10 mm path length were used. The decay of the BODIPYs was monitored between 420-440 and 520-550 nm (depending the BODIPY) following the laser excitation. Samples were irradiated with a total of 6 laser shots to acquire the temporal evolution of ΔOD.
A second layer of control was subsequently tested via LFP studies, to monitor the extent to which the trap segment deactivates the triplet excited state of the photosensitizes. […] The two quenchers emulate the trap segments utilized in 7 and 8, respectively.

Series [4] is described as follows: ^1O2 quantum yield, photooxidation of DMA (indirect method). It is filed as physicochemical. The following applies: consumption of dimethylanthracene, Rose Bengal standard, air equilibrated acetonitrile. How it is done: Solutions of 9,10-dimethylanthracene (DMA, 50 μM) and photosensitizers (compound 3-10) in air equilibrated acetonitrile were irradiated in 10 mm path length quartz cell (3 ml) with a Nd:Yag laser exciting at 532 nm. Laser excitation was performed at 10 Hz, providing one laser output for every discharge of the flashlamp. An irradiation time of 1 s is equivalent to 10 laser pulses. The energy of each pulse was 10 mJ. The kinetics of DMA photooxidation were studied by following the decrease of the absorbance at λ=377 nm. The observed rate constant (kobs) was obtained by a linear least-squares fit of the semilogarithmic plot of ln [DMA]0/[DMA] (see FIG. 14). Quantum yields of ^1O2 production (φΔ^I) were calculated comparing the kobs=kq [^1O2] for the corresponding photosensitizer with that for Rose Bengal, which was used as a reference (φΔ=0.54).^1 Measurements of the sample and the reference under the same conditions afforded φΔ^I for compounds (3-10) by direct comparison of the slope in the linear region of the plots.
For the indirect detection of ^1O2, it is possible to determine the kq value considering that the production of ^1O2 is constant compare with the initial concentration of DMA. According to these, a pseudo first-order kinetic for this reaction is proposed (equations 2 to 5): […]
The conversion of DMA followed pseudo-first order kinetics with the different photosensitizers (see FIG. 14). From equation 5, it was possible to determine kobs and ^1O2.

Series [5] is described as follows: ^1O2 quantum yield and lifetime, ^1O2 phosphorescence at 1270 nm (direct method). It is filed as physicochemical. How it is done:
The generation of singlet oxygen and its lifetime were determined from ^1O2 phosphorescence decay curves recorded at 1270 nm upon excitation with a 532 nm Nd:YAG laser. A total of 3 laser shots were applied to acquire a trace. […] Quantum yield of ^1O2 production (φΔ^D) were calculated comparing the intensity of ^1O2 phosphorescence at 1270 nm for the corresponding photosensitizer with that recorded for Rose Bengal (φΔ=0.54).^81

For series [6] the following is noted: cited from earlier work; for abs λmax / em λmax / Φf (fluorescence quantum yield) / ε (extinction coefficient): acetonitrile, room temperature, from reference 31; for E00 (HOMO-LUMO gap): from reference 54 (1) or 31 (2).
The conditions of series [7]: acetonitrile, room temperature; from reference 31; cited from earlier work.
For series [8] the following is noted: cited from earlier work; for E^oB^+·/B (reversible oxidation potential): from reference 54 (1) or 31 (2).
For series [9] the following is noted: from reference 54 (1) or 31 (2); cited from earlier work.
The conditions of series [10]: from reference 54 (1) or 31 (2); cited from earlier work. This is another data set of the same source.
In another series the test system is E. coli ATCC 25922. The series is described as follows: Antibacterial photodynamic inactivation, regular vs hydrogen peroxide stressed bacteria (CFU counts). The following applies: in the dark; 7 with or without H2O2. Format: cell-based. How it is done: The microorganism used for this study is E. coli ATCC 25922. Stock cultures were preserved at −70° C. using glycerol 10% (v/v) as the cryoprotectant, and the strain was grown in Luria Bertania broth (LB). Bacterial culture was prepared inoculating a single colony from a pure culture. After overnight incubation at 37° C. for 18 h, the culture reached a density of approximately 1×10^9 CFU/mL and it was diluted to 10^6 CFU/mL.
At the end of the irradiation time, 100 μL aliquots were placed in 96 wells from each tube and serially diluted 10-fold in PBS to obtain dilutions of 10^1 to 10^4 fold, in addition to the original concentration, on agar plates to determine CFU. Viability counts were performed at 0 and 1 hour in either dark or light conditions from each dilution, 10 μL aliquots were plated on LB agar. Plates were streaked in triplicate and incubated for 18 h at 37° C. Each experiment was performed at least three times on different days.
To stress the cells we utilized hydrogen peroxide, known to stimulate ROS production in Gram-negative cells.^79,80 We incubated bacteria from the E. coli strain (10^6 colony forming units (CFU)/mL) with 500 nM hydrogen peroxide for 2 hours at 37° C. Following precipitation and resuspension of this bacteria in media with no H2O2, we added compound 7. In parallel, compound 7 was also added to bacteria that were not exposed to H2O2.

A short description of series [11]: Intermolecular quenching of ^1O2 phosphorescence by chromanol rings. It is filed as physicochemical. The following applies: ^1O2 generated upon irradiation of compound 5, air equilibrated acetonitrile. From the text: To test whether 7 is equally efficient at deactivating ^1O2 as α-tocopherol, we generated ^1O2 upon irradiation of compound 5 and monitored the ^1O2 phosphorescence lifetime in the presence of increasing amounts of either 7 or PMHC (an α-tocopherol analogue lacking the phytyl tail).

For series [12] the following is noted: cited from earlier work; for overall singlet oxygen quenching rate constant kq: kq(physical)+kq(chemical), reference 74; for chemical quenching of ^1O2 / physical quenching of ^1O2: share of total quenching.

Consider `CC1=C(I)C(C)=[N+]2C1=C(COC(=O)C1(C)CCc3c(C)c(O)c(C)c(C)c3O1)c1c(C)c(I)c(C)n1[B-]2(F)F` (racemic) [Compound 8, 8-((±)-6-Hydroxy-2,5,7,8-tetramethylchromane-2-carbonyloxy)-2,6-diiodo-methyl-1,3,5,7-tetramethylpyrromethene Fluoroborate], for which, in series [1] (7 compared to reference 4, 8 compared to 5), the “drop in φf caused by the trap segment” value is “ca. 2 fold”. Also, in series [1] (acetonitrile, room temperature), the “abs λmax” value came to 552 nm, the “em λmax” value was determined as 576 nm, the “Φf (fluorescence quantum yield)” value came to 0.009 ± 0.002 and the “ε (extinction coefficient)” value was 63000 M⁻¹ cm⁻¹. Besides, in series [2], the “kdec (fluorescence decay rate constant)” value was 555.6 ± 0.6 × 10^7 s^−1; the “knr (non-radiative decay rate constant, (1−φf)×kdec)” value is recorded as 551.0 ± 0.5 × 10^7 s^−1; the “krad (radiative rate constant, φf×kdec)” value is listed as 5.0 ± 0.1 × 10^7 s^−1. Further, the “increase in kT upon covalent attachment of the chromanol” value in series [3] (8 compared to its precursor 5) stood at 6 fold. For the same compound, in [3] (Ar saturated acetonitrile), the “kq (triplet quenching rate constant) Q = PMHC” value was 5.90 ± 0.09 × 10^8 M^−1s^−1. The “kT (triplet decay rate constant) Air equilibrated” value in series [3] (acetonitrile, air equilibrated) was 4.55 ± 0.02 × 10^6 s^−1. The “kT (triplet decay rate constant) Argon Purged” value in [3] (acetonitrile, argon purged) is 9.16 ± 0.05 × 10^4 s^−1. Moreover, in series [3] (acetonitrile, calculated with oxygen solubility 2.42 mM), the “kq (triplet quenching rate constant) Q = ^3O2” value is given as 1.88 ± 0.02 × 10^9 M^−1s^−1. Also, the “ΦΔ^I (singlet oxygen quantum yield, indirect)” value in [4] is 0.46 ± 0.03. The “φΔ relative to control compound 5” value in series [5] is recorded as “ca. ½”. Also, the “ΦΔ^D (singlet oxygen quantum yield, direct)” value in [5] (^1O2 phosphorescence at 1270 nm, air equilibrated acetonitrile) was 0.57 ± 0.02. In addition, the “^1O2 phosphorescence decay lifetime” value in [5] (upon photosensitization, air equilibrated acetonitrile) is 70 μs.

As for `CC1=CC(C)=[N+]2C1=C(C)c1c(C)cc(C)n1[B-]2(F)F` [Compound 1, 1,3,5,7,8-pentamethyl-Pyrromethene Fluoroborate], in series [6], the “abs λmax” value is given as 491 nm, the “em λmax” value is reported as 498 nm, the “Φf (fluorescence quantum yield)” value is reported as 0.81 ± 0.02 and the “ε (extinction coefficient)” value was 97000 M⁻¹ cm⁻¹. Moreover, the “E00 (HOMO-LUMO gap)” value in series [6] is on record as 2.53 eV. Further, in [7], the “kdec (fluorescence decay rate constant)” value is listed as 17.8 ± 0.1 × 10^7 s^−1, the “knr (non-radiative decay rate constant)” value was 3.3 ± 0.1 × 10^7 s^−1 and the “krad (radiative rate constant)” value is recorded as 14.4 ± 0.1 × 10^7 s^−1. The “E^oB^+·/B (reversible oxidation potential)” value in series [8] is given as 0.77. Also, in [9], the εHOMO was −5.36 ± 0.01 eV and the εLUMO is reported as −2.31 ± 0.05 eV. Moreover, the “ΔGeT (Singlet), Gibbs free energy for PeT” value in [10] was −0.26 eV.

Consider `CC(=O)OCC1=C2C(C)=CC(C)=[N+]2[B-](F)(F)n2c(C)cc(C)c21` [Compound 2, 8-Acetoxymethyl-1,3,5,7-tetramethyl Pyrromethene Fluoroborate], for which, in series [6], the “abs λmax” value is listed as 515 nm, the “em λmax” value was 530 nm, the “Φf (fluorescence quantum yield)” value is recorded as 0.87 ± 0.02 and the “ε (extinction coefficient)” value was 81000 M⁻¹ cm⁻¹. For the same compound, the “E00 (HOMO-LUMO gap)” value in series [6] is 2.38 eV. Moreover, in [7], the “kdec (fluorescence decay rate constant)” value is on record as 15.0 ± 0.2 × 10^7 s^−1, the “knr (non-radiative decay rate constant)” value is on record as 2.0 ± 0.1 × 10^7 s^−1 and the “krad (radiative rate constant)” value was 13.1 ± 0.2 × 10^7 s^−1. The “E^opc (cathodic peak potential)” value in series [8] (from reference 31) is on record as −1.44. The “E^oB^+·/B (reversible oxidation potential)” value in [8] was 0.75. In series [9], the εHOMO was −5.49 ± 0.01 eV and the εLUMO is listed as −2.61 ± 0.05 eV. In addition, the “ΔGeT (Singlet), Gibbs free energy for PeT” value in series [10] is on record as −0.24 eV.

Turning to `OO` [Compound H2O2, hydrogen peroxide, reference compound], the “colony forming units, dark controls” value in the series on E. coli ATCC 25922 is listed as “no effect in the CFU”.

On to `Cc1c(C)c2c(c(C)c1O)CCC(C)(C)O2` [PMHC, 2,2,5,7,8-pentamethyl-6-hydroxy-chroman], for which the “singlet oxygen quenching rate constant kq” value in series [11] stood at 4e+08 M⁻¹ s⁻¹. In series [12], the “overall singlet oxygen quenching rate constant kq” value was 1.96e+08 M⁻¹ s⁻¹, the “chemical quenching of ^1O2” value was 5% and the “physical quenching of ^1O2” value is 95%.

Take `Cc1c(C)c2c(c(C)c1O)CC[C@@](C)(CCC[C@H](C)CCC[C@H](C)CCCC(C)C)O2` [α-tocopherol]: in [12], the “overall singlet oxygen quenching rate constant kq” value is 2.06e+08 M⁻¹ s⁻¹, the “chemical quenching of ^1O2” value is listed as 7% and the “physical quenching of ^1O2” value was 93%.
